In patent publication US7825263B2, “Nitrooxyderivatives of carvedilol and other beta blockers as antihypertensive” (Nicox S.A., priority 2003, dated 2010):
pEC50: −log10 of the molar value.

Tested on: PC12 cells
Test: Measurements of cGMP in rat PC12 cell line (cGMP accumulation, enzyme immunoassay)
Type: cell-based
Conditions: for pEC50: PC-12, 0.75 h
Protocol: Measurements of cGMP in Rat PC12 Cell Line
cGMP contributes to the function and interaction of several vascular cell types and its dysfunction is involved in major cardiovascular diseases such as hypertension, diabetic complications, atherosclerosis, and tissue infarction. Therefore the extent of cGMP formation elicited by the compounds of the inventions was evaluated in the rat pheochromocytoma (PC12) cell line.
Cells were maintained at 37° C. in DMEM medium enriched with 10% horse serum and 5% foetal bovine serum under 5% CO2 atmosphere. At the time of experiments the cells were washed once with Hank's Balanced Salt Solution (HBSS) supplemented with 0.05% ascorbic acid and preincubated in the same buffer for 10 min in a floating water bath. After the preincubation step, cells were exposed for additional 45 min to either control conditions or increasing concentrations of test compounds ranging from 0.1 to 25 μM, in the presence of the phosphodiesterase inhibitor, IBMX (100 μM) and the NO-independent activator of soluble guanylyl cyclase, YC-1 (20 μM). The reaction was terminated by the removal of the incubating buffer and consecutive addition of 100 μl of absolute ethanol. The organic extracts were then evaporated to dryness and the residues dissolved in aqueous buffer for quantitative determination of intracellular cGMP levels using the cGMP enzyme immunoassay kit.
The obtained results reported in Table 1 are expressed as EC50 (μM) and efficacy Emax (% of vehicle). As shown in the table the nitroderivatives of carvedilol induced a consistent increase of intracellular cGMP formation in PC12 cell line. Conversely, this effect was not induced by the parent compound.

[1] = 45 min exposure, 0.1 to 25 μM test compound, in presence of IBMX (100 μM) and YC-1 (20 μM)

Structure (SMILES)	EC50, cGMP accumulation in PC12 cells [1]	Emax (% of vehicle), cGMP accumulation in PC12 cells [1]	increase of intracellular cGMP formation in PC12 cell line (in words) (summary statement on Table 1)	pEC50 [1]
COc1ccccc1OCCNCC(O)COc1cccc2[nH]c3ccccc3c12 (centres unmarked) [Carvedilol]	Not effective	Not effective	not induced	
COc1ccccc1OCCNCC(COc1cccc2[nH]c3ccccc3c12)OC(=O)c1ccc(CO[N+](=O)[O-])cc1 (centres unmarked) [Compound of example 1, 4-(Nitrooxymethyl)benzoic acid 1-(9H-carbazol-4-yloxy)-3-[[2-(2-methoxyphenoxy)ethyl]amino]-2-propanoate]		480 % of vehicle		5.64
COc1ccccc1OCCN(CC(O)COc1cccc2[nH]c3ccccc3c12)C(=O)c1ccc(CO[N+](=O)[O-])cc1 (centres unmarked) [Compound of example 3, 1-(9H-carbazol-4-yloxy)-3-[[2-(2-methoxyphenoxy)ethyl][(4-nitrooxymethyl)benzoyl]amino]-2-propanol]		565 % of vehicle		5.74
COc1ccccc1OCCN(CC(O)COc1cccc2[nH]c3ccccc3c12)C(=O)CCO[N+](=O)[O-] (centres unmarked) [Compound of example 4]		395 % of vehicle		5.77
COc1ccccc1OCCN(CC(O)COc1cccc2[nH]c3ccccc3c12)C(=O)CCCCCO[N+](=O)[O-] (centres unmarked) [Compound of example 5]		322 % of vehicle		6.22
